Values of other authors as cited in patent publication US20110091560A1, “COMPOSITIONS OF NANOPARTICLES AND METHODS OF MAKING THE SAME” (The Burnham Institute for Medical Research, priority 2009, published 2011).
Structures can show the parent of a compound that is named as a salt.

Conditions: Log P, octanol and water
For O=C(/C=C/c1ccc(CN(CCO)CCc2c[nH]c3ccccc23)cc1)NO [Dacinostat], the “Partition Coefficient” value is given as 2.1. For CC(O)(P(=O)(O)O)P(=O)(O)O [Etidronate], the “Partition Coefficient” value is listed as −6. In the case of C=C1C[C@@H]2[C@H](CC[C@]3(C)C(=O)CC[C@@H]23)[C@@]2(C)C=CC(=O)C=C12 [Exemestane], the “Partition Coefficient” value is given as 3.8. For O=P(O)(O)C(Cl)(Cl)P(=O)(O)O [Clodronate], the “Partition Coefficient” value is given as −5.6. For CC(C)(C#N)c1cc(Cn2cncn2)cc(C(C)(C)C#N)c1 [Anastrozole], the “Partition Coefficient” value is given as 3.5. In the case of O=P1(N(CCCl)CCCl)NCCCO1 (centres unmarked) [cyclosphosphamide], the “Partition Coefficient” value is given as 0.3. In the case of COc1cc2ncnc(Nc3ccc(F)c(Cl)c3)c2cc1OCCCN1CCOCC1 [Gefitinib], the “Partition Coefficient” value is listed as 4.5. For O=C(CCCCCCC(=O)Nc1ccccc1)NO [Vorinostat (SAHA), Vorinostat], the “Partition Coefficient” value is given as 1.4. For O=c1[nH]cc(F)c(=O)[nH]1 [Example 5-FU, 5-FU], the “Partition Coefficient” value is listed as −0.6. For CC1=C(CO)C2=C(C)C3(CC3)[C@@](C)(O)C(=O)C2=C1 [Irofulven], the “Partition Coefficient” value is given as 4.7. For O=P(O)(O)C(O)(Cc1cccnc1)P(=O)(O)O [Risedronate], the “Partition Coefficient” value is listed as −5.8. For C[C@]12CCC(=O)C(O)=C1CC[C@@H]1[C@@H]2CC[C@]2(C)C(=O)CC[C@@H]12 [Formestane], the “Partition Coefficient” value is given as 3.1. For C=CCNC1=C2C[C@@H](C)C[C@H](OC)[C@H](O)[C@@H](C)/C=C(\C)[C@H](OC(N)=O)[C@@H](OC)/C=C\C=C(/C)C(=O)NC(=CC1=O)C2=O [Example 17-AAG, 17-AAG], the “Partition Coefficient” value is listed as 3.4. For CC(=O)O[C@H]1C(=O)[C@@]2(C)[C@H]([C@H](OC(=O)c3ccccc3)[C@]3(O)C[C@H](OC(=O)[C@H](O)[C@@H](NC(=O)c4ccccc4)c4ccccc4)C(C)=C1C3(C)C)[C@]1(OC(C)=O)CO[C@@H]1C[C@@H]2O [Paclitaxel], the “Partition Coefficient” value is given as 3.6. For CCCC(CCC)C(=O)O [Valproic acid], the “Partition Coefficient” value is listed as 2.6. In the case of CS(=O)(=O)CCNCc1ccc(-c2ccc3ncnc(Nc4ccc(OCc5cccc(F)c5)c(Cl)c4)c3c2)o1 [Lapatinib], the “Partition Coefficient” value is listed as 5.1. For Nc1ccn([C@@H]2O[C@H](CO)[C@@H](O)C2(F)F)c(=O)n1 [gemcitabine], the “Partition Coefficient” value is given as −1.4. In the case of O=C(/C=C/c1cccc(S(=O)(=O)Nc2ccccc2)c1)NO [Belinostat], the “Partition Coefficient” value is listed as 1. In the case of Cc1nc(N)nc(N)c1-c1ccc(Cl)c(Cl)c1 [Metoprine], the “Partition Coefficient” value is listed as 2.6. In the case of CO[C@H]1C[C@@H]2CC[C@@H](C)[C@@](O)(O2)C(=O)C(=O)N2CCCC[C@H]2C(=O)O[C@H]([C@H](C)C[C@@H]2CC[C@@H](OC(=O)C(C)(CO)CO)[C@H](OC)C2)CC(=O)[C@H](C)/C=C(\C)[C@@H](O)[C@@H](OC)C(=O)[C@H](C)C[C@H](C)/C=C/C=C/C=C/1C [Temsirolimus], the “Partition Coefficient” value is listed as 6.8. For Cc1[nH]c2ccccc2c1CCNCc1ccc(/C=C/C(=O)NO)cc1 [Panobinostat], the “Partition Coefficient” value is listed as 2.8. For CC(C)C[C@H](NC(=O)[C@H](Cc1ccccc1)NC(=O)c1cnccn1)B(O)O [Bortezomib], the “Partition Coefficient” value is given as −0.4. For N#Cc1ccc(C(c2ccc(C#N)cc2)n2cncn2)cc1 [Letrozole], the “Partition Coefficient” value is given as 3.1. In the case of NCCC(O)(P(=O)(O)O)P(=O)(O)O [Pamidronate], the “Partition Coefficient” value is given as −7. In the case of C#Cc1cccc(Nc2ncnc3cc(OCCOC)c(OCCOC)cc23)c1 [Erlotinib HCl], the “Partition Coefficient” value is given as 3.9. In the case of CN(C)CCOc1ccc(/C(=C(/CCCl)c2ccccc2)c2ccccc2)cc1 [Toremifene], the “Partition Coefficient” value is given as 5.7. For COc1cc([C@@H]2c3cc4c(cc3[C@@H](O[C@@H]3O[C@@H]5CO[C@@H](C)O[C@H]5[C@H](O)[C@H]3O)[C@H]3COC(=O)[C@H]23)OCO4)cc(OC)c1O [etoposide], the “Partition Coefficient” value is given as 0.06. In the case of CCCCCN(C)CCC(O)(P(=O)(O)O)P(=O)(O)O [Ibandronate sodium], the “Partition Coefficient” value is given as −4.4. For C[C@]12CC[C@@H]3c4ccc(O)cc4C[C@@H](CCCCCCCCC[S+]([O-])CCCC(F)(F)C(F)(F)F)[C@H]3[C@@H]1CC[C@@H]2O (some centres unmarked) [Fulvestrant (SERD), Fulvestrant], the “Partition Coefficient” value is listed as 8.5. For NC(=O)N1CCC(CC(=O)N2CCC([C@H]3c4ncc(Br)cc4CCc4cc(Cl)cc(Br)c43)CC2)CC1 [Lonafarnib], the “Partition Coefficient” value is listed as 3.1. For CO[C@H]1C[C@@H]2CC[C@@H](C)[C@@](O)(O2)C(=O)C(=O)N2CCCC[C@H]2C(=O)O[C@H]([C@H](C)C[C@@H]2CC[C@@H](O)[C@H](OC)C2)CC(=O)[C@H](C)/C=C(\C)[C@@H](O)[C@@H](OC)C(=O)[C@H](C)C[C@H](C)/C=C/C=C/C=C/1C [Rapamycin], the “Partition Coefficient” value is listed as 6.9. In the case of O=P(O)(O)C(Sc1ccc(Cl)cc1)P(=O)(O)O [Tiludronate], the “Partition Coefficient” value is given as 2.3. For Nc1ccccc1NC(=O)c1ccc(CNc2nccc(-c3cccnc3)n2)cc1 [Mocetinostat], the “Partition Coefficient” value is given as 2.7. For O=C(c1ccc(OCCN2CCCCC2)cc1)c1c(-c2ccc(O)cc2)sc2cc(O)ccc12 [Raloxifene], the “Partition Coefficient” value is given as 6.3. In the case of Nc1ccccc1NC(=O)c1ccc(CNC(=O)OCc2cccnc2)cc1 [Entinostat], the “Partition Coefficient” value is listed as 3.1. For CN(Cc1cnc2nc(N)nc(N)c2n1)c1ccc(C(=O)N[C@@H](CCC(=O)O)C(=O)O)cc1 [methotrexate], the “Partition Coefficient” value is given as −0.7. In the case of Nc1nc(F)nc2c1ncn2[C@@H]1O[C@H](CO)[C@@H](O)[C@@H]1O [fludarabine], the “Partition Coefficient” value is listed as −1.3. In the case of Cc1nc(Nc2ncc(C(=O)Nc3c(C)cccc3Cl)s2)cc(N2CCN(CCO)CC2)n1 [Dasatinib], the “Partition Coefficient” value is given as 3.9. In the case of C[C@]1(c2nc3c(C(N)=O)cccc3[nH]2)CCCN1 [Veliparib (ABT-888), Veliparib], the “Partition Coefficient” value is given as 1. For CO[C@H]1C[C@@H]2CC[C@@H](C)[C@@](O)(O2)C(=O)C(=O)N2CCCC[C@H]2C(=O)O[C@H]([C@H](C)C[C@@H]2CC[C@@H](OCCO)[C@H](OC)C2)CC(=O)[C@H](C)/C=C(\C)[C@@H](O)[C@@H](OC)C(=O)[C@H](C)C[C@H](C)/C=C/C=C/C=C/1C [Everolimus], the “Partition Coefficient” value is listed as 6.8.

Same assay, conditions: Log P, octanol and water; listed as paclitaxel
For CC(=O)O[C@H]1C(=O)[C@@]2(C)[C@H]([C@H](OC(=O)c3ccccc3)[C@]3(O)C[C@H](OC(=O)[C@H](O)[C@@H](NC(=O)c4ccccc4)c4ccccc4)C(C)=C1C3(C)C)[C@]1(OC(C)=O)CO[C@@H]1C[C@@H]2O [Paclitaxel], the “Partition Coefficient” value is listed as “about 3.6”.
